Broadly, the IC50 is the concentration at which inhibition is half-maximal. Broadly, the EC50 is the midpoint of the concentration-response curve. Usually CC50 stands for the concentration at which the toxic effect on the cells reaches its halfway point. By AC50 is commonly meant the concentration giving half of the maximal activity seen.

Calls of active or inactive are those of the source.

Assay [1] addresses Induced myeloid leukemia cell differentiation protein Mcl-1 (Homo sapiens, UniProt Q07820). The class given is functional.
Assay [2] can be described thus: growth suppression of beta-catenin-knockout colon cells, dose response, cell-based, HCT116, human colon tumor (AID 1045).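 Note: HCT116 colon tumor cells with beta catenin knocked out; cells exposed to compound for 60 hours.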 Type of assay: functional.
Assay [3] concerns Vero. Description: host cell cytotoxicity of antiviral hits, dose response, cytotoxicity control for West Nile virus antiviral project, secondary assay (AID 1650). The settings on record: Chlorocebus sabaeus, Vero. The class given is functional, Chlorocebus sabaeus.
Assay [4] is described as follows: growth suppression of PTEN-null colon cells, dose response, cell-based, HCT116 PTEN knockout (AID 1047).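 Note: HCT116 colon tumor cells with PTEN knocked out; cells exposed to compound for 60 hours before readout; potency for loss of cell viability measured by luminescence.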 The class given is functional.
In assay [5] the target is Kallikrein-7 (Homo sapiens, UniProt P49862). Description: Fluorescence Intensity-based biochemical primary high throughput dose response assay to identify activators of kallikrein-7 (K7) zymogen.
The target in assay [6] is T1, Voltage-gated N-type calcium channel alpha-1B subunit/Amyloid beta A4 precursor protein-binding family A member 1 (Homo sapiens, UniProt Q00975+Q02410). The class given is protein assay.
In assay [7] the target is T1, Voltage-gated N-type calcium channel alpha-1B subunit/Amyloid beta A4 precursor protein-binding family A member 1. Type of assay: protein assay. The source holds these as a separate data set.
Assay [8] addresses Nonstructural protein 1 (Influenza A virus, UniProt Q194T2). Type of assay: functional, Influenza A virus (A/California/07/2009(H1N1)).
Assay [9] is described as follows: NIH:OVCAR-3 ovarian cancer cell cytotoxicity, dose response, PAX8 inhibitor project, plate reader, dry powder samples (AID 743044). Type of assay: functional, cell-based.
Assay [10] can be described thus: cytotoxicity in OVCAR8 ovarian cancer cells, dose response, PAX8 project, cell-based, plate reader, dry powder samples (AID 743197). The class given is functional. The settings on record: OVCAR-8.
Assay [11] has as its target Paired box protein Pax-8 (Homo sapiens, UniProt Q06710). Description: inhibitors of PAX8-driven TPO luciferase reporter, dose response, RMG-I cells, cherry-pick (AID 687027).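 Note: luciferase reporter driven by Pax8 target thyroperoxidase promoter measured by SteadyGlo luminescence.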 Type of assay: functional, cell-based. (In a reporter assay the amount or activity of a reporter protein is the signal.)
Assay [12] concerns INS1. Description: beta cell apoptosis inhibitors, cytokine rescue, dose response, luminescence, retest (AID 449756).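 Note: cell death triggered by IL-1 beta plus TNF-alpha plus IFN-gamma mixture; protective hits raise ATP signal compared with cytokine alone wells.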 Type of assay: functional, cell-based. As to conditions: Rattus norvegicus.
The nature of assay [13]: Shn3 3'UTR reporter inhibitors, dose response, cell-based, Clone20 osteoblasts, firefly luciferase, cherry-picked (AID 624132).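 Note: firefly luciferase luminescence from reporter carrying the Shn3 3'UTR in osteoblasts.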 Type of assay: functional.
Assay [14] in a line: control 3'UTR Renilla luciferase suppression, dose response, counter-screen for Shn3 inhibitor project, cell-based, Clone20-Shn3RL, cherry-picked (AID 624133). Type of assay: functional.
Assay [15] can be described thus: HepG2 cell cytotoxicity, dose response, cytotoxicity control for Shn3 inhibitor project, CellTiter-Glo, cherry-picked (AID 624134). Type of assay: functional, cell-based. In general terms: In ATP-based viability assays light output follows the ATP content of the culture.
Assay [16] concerns the target T2, Microphthalmia-associated transcription factor (Homo sapiens, UniProt O75030).
T2 sequence (O75030 whole entry): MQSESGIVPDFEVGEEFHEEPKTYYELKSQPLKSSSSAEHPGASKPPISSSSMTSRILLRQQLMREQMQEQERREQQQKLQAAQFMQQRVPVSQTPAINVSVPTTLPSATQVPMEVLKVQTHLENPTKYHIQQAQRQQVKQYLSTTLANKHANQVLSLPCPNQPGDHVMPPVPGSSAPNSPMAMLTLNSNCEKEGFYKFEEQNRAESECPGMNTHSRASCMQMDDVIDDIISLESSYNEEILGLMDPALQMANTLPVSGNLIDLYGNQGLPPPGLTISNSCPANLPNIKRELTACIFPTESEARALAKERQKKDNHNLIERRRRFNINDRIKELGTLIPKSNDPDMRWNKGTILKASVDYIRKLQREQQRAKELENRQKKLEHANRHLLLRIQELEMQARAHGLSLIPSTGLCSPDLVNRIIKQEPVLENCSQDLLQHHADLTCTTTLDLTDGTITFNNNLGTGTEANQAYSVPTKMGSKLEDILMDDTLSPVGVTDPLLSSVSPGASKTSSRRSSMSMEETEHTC
Description: TRPM1 promoter luciferase signal decrease, dose response, MITF inhibitor project, cell-based, SK-MEL-5, cherry-picked, set 3 (AID 493073).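 Note: SK-MEL-5 melanoma cells with luciferase driven by the MITF target TRPM1 promoter.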 Type of assay: functional.

Assay [17] has as its target Heat shock protein HSP 90-alpha (Homo sapiens, UniProt P07900). Type of assay: functional, organism-based.

T1 sequence (Q00975 whole entry): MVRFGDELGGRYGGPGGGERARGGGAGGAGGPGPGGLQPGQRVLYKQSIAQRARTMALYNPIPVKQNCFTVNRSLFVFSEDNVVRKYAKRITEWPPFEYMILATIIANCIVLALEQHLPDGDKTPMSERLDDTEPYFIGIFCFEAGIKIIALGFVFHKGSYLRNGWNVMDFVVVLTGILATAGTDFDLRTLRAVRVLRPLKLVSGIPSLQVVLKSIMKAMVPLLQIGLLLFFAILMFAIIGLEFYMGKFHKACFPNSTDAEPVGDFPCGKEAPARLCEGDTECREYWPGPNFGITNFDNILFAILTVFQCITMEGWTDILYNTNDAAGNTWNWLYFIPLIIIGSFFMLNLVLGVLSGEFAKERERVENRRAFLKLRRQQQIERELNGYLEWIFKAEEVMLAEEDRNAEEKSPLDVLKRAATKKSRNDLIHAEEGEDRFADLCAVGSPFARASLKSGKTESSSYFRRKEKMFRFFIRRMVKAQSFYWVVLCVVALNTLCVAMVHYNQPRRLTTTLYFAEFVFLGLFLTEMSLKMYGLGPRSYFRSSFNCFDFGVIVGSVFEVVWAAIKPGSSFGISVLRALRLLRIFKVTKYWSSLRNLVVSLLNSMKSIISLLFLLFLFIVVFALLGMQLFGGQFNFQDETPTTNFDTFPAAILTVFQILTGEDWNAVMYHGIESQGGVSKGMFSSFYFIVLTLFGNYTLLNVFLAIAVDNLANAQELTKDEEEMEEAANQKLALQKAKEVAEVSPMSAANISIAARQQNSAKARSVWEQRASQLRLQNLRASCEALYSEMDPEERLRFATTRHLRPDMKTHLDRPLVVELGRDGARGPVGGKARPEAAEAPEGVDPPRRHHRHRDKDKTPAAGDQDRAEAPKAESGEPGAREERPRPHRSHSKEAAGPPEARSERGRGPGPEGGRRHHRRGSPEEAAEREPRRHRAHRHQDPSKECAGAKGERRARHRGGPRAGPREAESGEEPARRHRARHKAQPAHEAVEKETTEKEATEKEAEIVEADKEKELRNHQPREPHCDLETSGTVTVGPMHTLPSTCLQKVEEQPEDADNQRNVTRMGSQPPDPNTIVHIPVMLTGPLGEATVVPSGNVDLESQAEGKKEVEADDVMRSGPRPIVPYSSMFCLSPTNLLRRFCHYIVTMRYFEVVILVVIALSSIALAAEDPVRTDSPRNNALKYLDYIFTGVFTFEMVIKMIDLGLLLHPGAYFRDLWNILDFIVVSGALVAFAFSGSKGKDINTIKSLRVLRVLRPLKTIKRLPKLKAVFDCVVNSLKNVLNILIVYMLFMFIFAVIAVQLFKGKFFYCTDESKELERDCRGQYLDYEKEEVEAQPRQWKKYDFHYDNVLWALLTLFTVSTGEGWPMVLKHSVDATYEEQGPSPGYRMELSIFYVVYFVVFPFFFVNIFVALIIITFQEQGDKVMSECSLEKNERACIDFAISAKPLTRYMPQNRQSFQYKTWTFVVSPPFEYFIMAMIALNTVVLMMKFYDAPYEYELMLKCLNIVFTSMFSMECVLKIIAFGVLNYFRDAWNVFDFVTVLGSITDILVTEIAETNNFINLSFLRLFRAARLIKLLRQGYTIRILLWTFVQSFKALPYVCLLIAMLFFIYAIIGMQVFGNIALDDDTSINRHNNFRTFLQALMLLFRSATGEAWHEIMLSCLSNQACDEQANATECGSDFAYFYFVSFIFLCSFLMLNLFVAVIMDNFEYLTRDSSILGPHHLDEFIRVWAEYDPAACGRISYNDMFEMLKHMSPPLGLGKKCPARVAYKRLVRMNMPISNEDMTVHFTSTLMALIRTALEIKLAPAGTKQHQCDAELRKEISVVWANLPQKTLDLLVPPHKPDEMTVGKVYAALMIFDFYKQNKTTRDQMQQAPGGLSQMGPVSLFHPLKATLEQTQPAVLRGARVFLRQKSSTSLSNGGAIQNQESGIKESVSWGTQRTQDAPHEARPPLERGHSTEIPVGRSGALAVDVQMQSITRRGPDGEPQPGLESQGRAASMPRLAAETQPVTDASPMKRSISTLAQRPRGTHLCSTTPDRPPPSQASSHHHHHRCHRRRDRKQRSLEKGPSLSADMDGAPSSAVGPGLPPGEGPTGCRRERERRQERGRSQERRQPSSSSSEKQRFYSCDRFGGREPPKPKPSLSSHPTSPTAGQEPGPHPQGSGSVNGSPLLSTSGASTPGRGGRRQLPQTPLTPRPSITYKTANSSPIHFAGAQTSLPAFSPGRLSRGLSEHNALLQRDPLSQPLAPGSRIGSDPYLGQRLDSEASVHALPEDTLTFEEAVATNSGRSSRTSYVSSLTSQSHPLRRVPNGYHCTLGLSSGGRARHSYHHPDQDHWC
T1 sequence (Q02410 whole entry): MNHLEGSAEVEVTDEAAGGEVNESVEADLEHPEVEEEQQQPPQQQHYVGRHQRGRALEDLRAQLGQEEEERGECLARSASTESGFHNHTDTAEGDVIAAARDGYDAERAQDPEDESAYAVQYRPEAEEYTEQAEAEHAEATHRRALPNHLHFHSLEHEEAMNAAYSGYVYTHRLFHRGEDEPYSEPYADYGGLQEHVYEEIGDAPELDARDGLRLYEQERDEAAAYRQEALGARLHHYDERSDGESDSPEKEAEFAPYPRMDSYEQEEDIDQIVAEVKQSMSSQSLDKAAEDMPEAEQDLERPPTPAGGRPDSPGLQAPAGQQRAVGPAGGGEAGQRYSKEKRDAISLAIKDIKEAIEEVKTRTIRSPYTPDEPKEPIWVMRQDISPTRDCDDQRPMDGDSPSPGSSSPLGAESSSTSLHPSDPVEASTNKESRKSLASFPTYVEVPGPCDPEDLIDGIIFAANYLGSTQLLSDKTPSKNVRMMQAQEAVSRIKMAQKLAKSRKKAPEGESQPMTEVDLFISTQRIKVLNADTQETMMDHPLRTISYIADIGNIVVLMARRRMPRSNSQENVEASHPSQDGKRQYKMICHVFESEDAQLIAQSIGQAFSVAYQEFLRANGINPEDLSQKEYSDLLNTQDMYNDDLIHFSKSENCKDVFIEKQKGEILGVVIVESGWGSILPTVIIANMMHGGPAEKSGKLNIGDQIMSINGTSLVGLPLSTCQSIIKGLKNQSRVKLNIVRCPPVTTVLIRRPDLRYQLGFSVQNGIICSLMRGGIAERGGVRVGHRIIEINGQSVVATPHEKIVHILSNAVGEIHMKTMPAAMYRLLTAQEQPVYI
Sequence of Kallikrein-7 (P49862 whole entry): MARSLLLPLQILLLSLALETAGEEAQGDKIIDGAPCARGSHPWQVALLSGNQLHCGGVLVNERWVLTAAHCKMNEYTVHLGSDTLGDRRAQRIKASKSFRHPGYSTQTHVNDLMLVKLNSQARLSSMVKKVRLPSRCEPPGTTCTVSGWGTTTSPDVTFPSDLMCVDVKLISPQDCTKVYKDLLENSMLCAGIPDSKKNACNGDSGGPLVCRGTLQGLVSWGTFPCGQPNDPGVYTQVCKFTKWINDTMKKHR
Sequence of Nonstructural protein 1 (Q194T2 whole entry): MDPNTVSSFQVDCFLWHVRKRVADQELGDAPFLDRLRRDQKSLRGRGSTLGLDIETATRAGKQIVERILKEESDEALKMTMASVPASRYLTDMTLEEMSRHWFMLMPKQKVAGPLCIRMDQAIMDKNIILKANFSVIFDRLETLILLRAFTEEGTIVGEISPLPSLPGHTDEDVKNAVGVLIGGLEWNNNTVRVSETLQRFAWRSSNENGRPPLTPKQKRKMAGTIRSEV
Sequence of Paired box protein Pax-8 (Q06710 whole entry): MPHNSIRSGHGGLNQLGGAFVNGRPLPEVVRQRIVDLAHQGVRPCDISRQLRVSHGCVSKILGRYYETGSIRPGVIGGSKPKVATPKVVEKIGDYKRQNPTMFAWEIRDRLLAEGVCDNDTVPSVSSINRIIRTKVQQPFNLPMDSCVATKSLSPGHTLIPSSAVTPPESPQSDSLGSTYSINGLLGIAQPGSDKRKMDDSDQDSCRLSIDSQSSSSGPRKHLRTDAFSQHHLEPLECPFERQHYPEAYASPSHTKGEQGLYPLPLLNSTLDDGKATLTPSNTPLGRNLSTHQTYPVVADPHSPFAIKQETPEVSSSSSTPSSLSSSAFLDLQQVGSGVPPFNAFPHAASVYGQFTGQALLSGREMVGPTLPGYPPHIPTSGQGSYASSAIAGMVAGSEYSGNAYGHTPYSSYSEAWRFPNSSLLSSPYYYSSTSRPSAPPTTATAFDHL
Sequence of Induced myeloid leukemia cell differentiation protein Mcl-1 (Q07820 whole entry): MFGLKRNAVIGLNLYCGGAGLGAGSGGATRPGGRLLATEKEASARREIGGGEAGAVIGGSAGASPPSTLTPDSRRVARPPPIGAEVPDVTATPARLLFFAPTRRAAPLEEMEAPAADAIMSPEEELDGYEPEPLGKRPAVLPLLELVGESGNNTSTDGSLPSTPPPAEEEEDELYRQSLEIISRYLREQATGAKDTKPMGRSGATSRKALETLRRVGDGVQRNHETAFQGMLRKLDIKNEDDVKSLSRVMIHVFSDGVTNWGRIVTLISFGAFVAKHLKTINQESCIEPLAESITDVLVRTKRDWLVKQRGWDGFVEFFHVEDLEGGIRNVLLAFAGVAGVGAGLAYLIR

Take `CCN=c1ccc(Br)cc(C(=O)/C=C/c2c(Cl)cccc2Cl)c1O`: the IC50 in assay [1] is 2.32 µM (active). Besides, the EC50 in [2] was 1.67 µM (active); in assay [4], 1.92 µM (active). In addition, the 50% cytotoxic concentration (CC50) in [3] was > 100 µM (active).

For `CN(C)c1cccc2c(S(=O)(=O)NC(=O)[C@H]3O[C@@H](n4cnc5c(N)ncnc54)[C@H](O)[C@@H]3O)cccc12`, the EC50 in [5] was 8.16 µM (active).

With `CC(C)Nc1nc(-c2ccccc2CO)c2sccc2n1`, in [5], the EC50 is > 69.6 µM (inactive).

`CC1=C(C(=O)O)N2C(=O)C(NC(=O)c3ccccc3Cl)C2SC1` (stereo not drawn): the IC50 is > 50 µM (inactive) in assay [6] and 0.749 µM (active) in [7].

`COc1ccc(NC(=O)CSc2nn3c(=O)c(C)nnc3s2)cc1`: the IC50 in [8] was 8.25 µM (active).

In the case of `C[C@@H]1CCCCO[C@H](CN(C)Cc2ccccc2)[C@@H](C)CN([C@@H](C)CO)C(=O)c2cc(NC(=O)Nc3ccc(C(F)(F)F)cc3)ccc2O1`, the AC50 in assay [9] was 44.5 µM (active); in [10] it was 33.6 µM (active); in [11], 19 µM (active).

Take `C[C@@H]1CN([C@H](C)CO)S(=O)(=O)c2ccc(C#Cc3ccncc3)cc2O[C@H]1CN(C)C(=O)C1CCCCC1`: the AC50 in assay [9] is 17.1 µM (active); in assay [11], 3.13 µM (active).

Turning to `O=C(Nc1nc(-c2ccccn2)cs1)c1ccc(F)c(S(=O)(=O)N2CCOCC2)c1`, the AC50 was 1.59 µM (active) in assay [12]; 1.32 µM (active) in [13]; 0.711 µM (active) in assay [14]; > 70 µM (inactive) in assay [15]; 5.7 µM (active) in [16]. In assay [8], the IC50 is 7.88 µM (active).

Regarding `Cc1cc(NCCCCO)n2c(nc3ccccc32)c1C#N`, the EC50 in assay [5] was > 69.5 µM (inactive).

As to `Cc1nc2sc(C(=O)OC(C)C)c(N)c2c(C)c1C`, the IC50 was > 50 µM (inactive) in [6] and 4.25 µM (active) in assay [7].

For `CCOC(=O)c1ccc(N2C(=O)C=CC2=O)cc1`, in assay [17], the AC50 was 0.691 µM (active). Further, the IC50 in assay [6] is 2.46 µM (active); in assay [7], 6.05 µM (active).

As for `CCn1ccnc1CNCc1cn(-c2cc(C)ccc2C)nc1-c1ccccc1`, in assay [8], the 50% inhibitory concentration (IC50) was 11.8 µM (active).

On to `Cn1c(=O)[nH]c(=O)c2c1nc(N1CCCCC1)n2CCCSc1nc2ccccc2s1`, for which the CC50 in assay [3] is > 100 µM (active).

Source of the values: ChEMBL document CHEMBL1201862, “PubChem BioAssay data set” (2004).
